Measurements from patent US9187467B2, “2-phenyl benzothiazole linked imidazole compounds as potential anticancer agents and process for the preparation thereof” (Council of Scientific and Industrial Research, priority 2012, dated 2015).
Read-outs that look alike come from different tables or passages of the source.

How the values were obtained:
A549/ATCC = experiment: SRB anticancer assay, non-small lung; format: cell-based, human; parameters: Log10GI50: unit not given here
NCI-H522 = experiment: SRB anticancer assay, non-small lung; format: cell-based, human; parameters: Log10GI50: unit not given here
HT29 = experiment: SRB anticancer assay, colon; format: cell-based, human; conditions: Homo sapiens, HT-29; HT29, 48 h
SF-295 = experiment: SRB anticancer assay, CNS; format: cell-based, human; parameters: Log10GI50: unit not given here
SNB-75 = experiment: SRB anticancer assay, CNS; format: cell-based, human; parameters: Log10GI50: unit not given here
786-0 = experiment: SRB anticancer assay, renal; format: cell-based, human
TK-10 = experiment: SRB anticancer assay, renal; format: cell-based, human; conditions: Homo sapiens, TK-10, 48 h
PC-3 = experiment: SRB anticancer assay, prostate; format: cell-based, human; parameters: Log10GI50: unit not given here
DU-145 = experiment: SRB anticancer assay, prostate; format: cell-based, human; parameters: Log10GI50: unit not given here
MCF7 = experiment: SRB anticancer assay, breast; format: cell-based, human; conditions: Homo sapiens, MCF7, 48 h
HS 578T = experiment: SRB anticancer assay, breast; format: cell-based, human; parameters: Log10GI50: unit not given here; conditions: present compounds
LOX IMVI = experiment: SRB anticancer assay, melanoma; format: cell-based, human; parameters: Log10GI50: unit not given here
MALME-3M = experiment: SRB anticancer assay, melanoma; format: cell-based, human; parameters: Log10GI50: unit not given here
UACC-62 = experiment: SRB anticancer assay, melanoma; format: cell-based, human
Breast cancer cell lines = experiment: SRB anticancer assay, panel result; format: cell-based, human
Procedure: (§1) The compounds were evaluated for anticancer activity against sixty human cancer cells derived from nine cancer types (leukemia cell line, non-small-cell lung cell line, colon cell line, CNS cell line, melanoma cell line, ovarian cell line, prostate cell line, renal cancer cell line and breast cancer cell line) as shown in Table 1. For each compound, dose response curves for each cell line were measured at a minimum of five concentrations at 10 fold dilutions. A protocol of 48 h continuous drug exposure was used and a sulforhodamine B (SRB) protein assay was used to estimate cell viability or growth.

CNS cancer cell lines = experiment: SRB anticancer assay, panel result; format: cell-based, human
Procedure: as §1

Colon cancer cell lines = experiment: SRB anticancer assay, panel result; format: cell-based, human
Procedure: as §1

[1] = tested on: Leukemia cancer cell lines; experiment: SRB anticancer assay, panel result; format: cell-based, human
Procedure: as §1

[2] = tested on: Melanoma cancer cell lines; experiment: SRB anticancer assay, panel result; format: cell-based, human
Procedure: as §1

[3] = tested on: Non-small cell lung cancer cell lines; experiment: SRB anticancer assay, panel result; format: cell-based, human
Procedure: as §1

[4] = tested on: Ovarian cancer cell lines; experiment: SRB anticancer assay, panel result; format: cell-based, human
Procedure: as §1

[5] = tested on: Prostate cancer cell lines; experiment: SRB anticancer assay, panel result; format: cell-based, human
Procedure: as §1

Renal cancer cell lines = experiment: SRB anticancer assay, panel result; format: cell-based, human
Procedure: as §1

K562 (Leukemia) cells = experiment: Cell cycle distribution by flow cytometry; format: cell-based
Procedure: In order to investigate the mechanism underlying the anti-proliferative effect of the compounds the cell cycle distribution was analyzed in K562 (Leukemia) and MCF-7 (Breast carcinoma) cell lines by flow cytometry. Compounds CA-4, 21a, 21d, 4c, 6d, 6e, 6f, 7d, 7h and 7j have shown 1.72%, 14%, 12%, 14%, 12%, 14%, 14%, 16%, 16% &12% in K562 cells and 49.63%, 21%, 20%, 18%, 21%, 21%, 21%, 24%, 23% and 23% in MCF-7 cell line respectively. […] Thus compound 7d was considered for further studies (FIG. 1).

## COc1cc2nc(-c3ccc(-n4cncc4-c4ccc(N)cc4)cc3)sc2c(OC)c1OC [Compound 7h, 4-(1-(4-(5,6,7-Trimethoxybenzo[d]thiazol-2-yl)phenyl)-1H-imidazol-5-yl)benzenamine]
A549/ATCC; Homo sapiens, 48 h
  GI50: 3.14 µM
A549/ATCC; present compounds
  Log10GI50: −5.50
NCI-H522; Homo sapiens, NCI-H522, 48 h
  GI50: 2.74 µM
NCI-H522; NCI-H522, present compounds
  Log10GI50: −5.56
HT29
  GI50: 2.79 µM
SF-295; Homo sapiens, SF-295, 48 h
  GI50: 1.53 µM
SF-295; SF-295, present compounds
  Log10GI50: −5.82
SNB-75; Homo sapiens, SNB-75, 48 h
  GI50: 5.94 µM
SNB-75; SNB-75, present compounds
  Log10GI50: −5.23
786-0; 786-0, present compounds
  Log10GI50: −5.20 log10 M
786-0; Homo sapiens, 786-0, 48 h
  GI50: 6.26 µM
TK-10
  GI50: 4.93 µM
PC-3; Homo sapiens, PC-3, 48 h
  GI50: 3.02 µM
PC-3; PC-3, present compounds
  Log10GI50: −5.52
DU-145; DU-145, present compounds
  Log10GI50: −5.04
DU-145; Homo sapiens, DU-145, 48 h
  GI50: 7.25 µM
MCF7
  GI50: 3.02 µM
HS 578T
  Log10GI50: −5.27
LOX IMVI; Homo sapiens, 48 h
  GI50: 3.65 µM
LOX IMVI; present compounds
  Log10GI50: −5.44
MALME-3M; Homo sapiens, Malme-3M, 48 h
  GI50: 0.71 µM
MALME-3M; MALME-3M, present compounds
  Log10GI50: −6.15
UACC-62; Homo sapiens, UACC-62, 48 h
  GI50: 5.45 µM
UACC-62; UACC-62, present compounds
  Log10GI50: −5.26 log10 M
Breast cancer cell lines; Breast panel, total inhibition of net cell growth
  mean graph midpoint value (MG_MID) of log10 TGI: −4.47
Breast cancer cell lines; Homo sapiens, Breast panel, 50% net cell death, read-out: mean graph midpoint value (MG_MID) of Log10 LC50 (converted)
  CC50: > 100 µM
Breast cancer cell lines; Homo sapiens, Breast panel, read-out: mean graph midpoint value (MG_MID) of Log10 GI50 (converted)
  GI50: 2.82 µM
Breast cancer cell lines; Homo sapiens, six breast cancer cell lines, exposure at least 48 h, read-out: GI50, range over the panel
  GI50: 1.59 to 5.36 µM
CNS cancer cell lines; CNS panel, total inhibition of net cell growth
  mean graph midpoint value (MG_MID) of log10 TGI: −4.51
CNS cancer cell lines; Homo sapiens, CNS panel, 50% net cell death, read-out: mean graph midpoint value (MG_MID) of Log10 LC50 (converted)
  CC50: 66.1 µM
CNS cancer cell lines; Homo sapiens, CNS panel, read-out: mean graph midpoint value (MG_MID) of Log10 GI50 (converted)
  GI50: 5.75 µM
CNS cancer cell lines; Homo sapiens, six CNS cancer cell lines, exposure at least 48 h, read-out: GI50, range over the panel
  GI50: 1.53 to 12.3 µM
Colon cancer cell lines; Colon panel, total inhibition of net cell growth
  mean graph midpoint value (MG_MID) of log10 TGI: >−4.0
Colon cancer cell lines; Homo sapiens, Colon panel, 50% net cell death, read-out: mean graph midpoint value (MG_MID) of Log10 LC50 (converted)
  LC50: > 100 µM
Colon cancer cell lines; Homo sapiens, Colon panel, read-out: mean graph midpoint value (MG_MID) of Log10 GI50 (converted)
  GI50: 3.31 µM
Colon cancer cell lines; Homo sapiens, seven colon cancer cell lines, exposure at least 48 h, read-out: GI50, range over the panel
  GI50: 2.79 to 3.81 µM
[1]; Homo sapiens, Leukemia panel, 50% net cell death, read-out: mean graph midpoint value (MG_MID) of Log10 LC50 (converted)
  LC50: > 100 µM
[1]; Homo sapiens, Leukemia panel, read-out: mean graph midpoint value (MG_MID) of Log10 GI50 (converted)
  GI50: 1.2 µM
[1]; Homo sapiens, six leukemia cancer cell lines, exposure at least 48 h, read-out: GI50, range over the panel
  GI50: 0.989 to 1.4 µM
[1]; Leukemia panel, total inhibition of net cell growth
  mean graph midpoint value (MG_MID) of log10 TGI: >−4.0
[2]; Homo sapiens, Melanoma panel, 50% net cell death, read-out: mean graph midpoint value (MG_MID) of Log10 LC50 (converted)
  LC50: 97.7 µM
[2]; Homo sapiens, Melanoma panel, read-out: mean graph midpoint value (MG_MID) of Log10 GI50 (converted)
  GI50: 4.79 µM
[2]; Homo sapiens, nine melanoma cancer cell lines, exposure at least 48 h, read-out: GI50, range over the panel
  GI50: 0.71 to 6.4 µM
[2]; Melanoma panel, total inhibition of net cell growth
  mean graph midpoint value (MG_MID) of log10 TGI: −4.13
[3]; Homo sapiens, Non-small cell lung panel, 50% net cell death, read-out: mean graph midpoint value (MG_MID) of Log10 LC50 (converted)
  LC50: 93.3 µM
[3]; Homo sapiens, Non-small cell lung panel, read-out: mean graph midpoint value (MG_MID) of Log10 GI50 (converted)
  GI50: 2.57 µM
[3]; Homo sapiens, nine Non-small cell lung cancer cell lines, exposure at least 48 h, read-out: GI50, range over the panel
  GI50: 0.446 to 5.13 µM
[3]; Non-small cell lung panel, total inhibition of net cell growth
  mean graph midpoint value (MG_MID) of log10 TGI: −4.54
[4]; Homo sapiens, Ovarian panel, 50% net cell death, read-out: mean graph midpoint value (MG_MID) of Log10 LC50 (converted)
  LC50: 89.1 µM
[4]; Homo sapiens, Ovarian panel, read-out: mean graph midpoint value (MG_MID) of Log10 GI50 (converted)
  GI50: 5.01 µM
[4]; Homo sapiens, seven ovarian cancer cell lines, exposure at least 48 h, read-out: GI50, range over the panel
  GI50: 1.61 to 34.3 µM
[4]; Ovarian panel, total inhibition of net cell growth
  mean graph midpoint value (MG_MID) of log10 TGI: −4.56
[5]; Homo sapiens, Prostate panel, 50% net cell death, read-out: mean graph midpoint value (MG_MID) of Log10 LC50 (converted)
  LC50: > 100 µM
[5]; Homo sapiens, Prostate panel, read-out: mean graph midpoint value (MG_MID) of Log10 GI50 (converted)
  GI50: 4.68 µM
[5]; Homo sapiens, two prostate cancer cell lines (PC-3, DU-145), exposure at least 48 h, read-out: GI50, range over the panel
  GI50: 3.02 to 7.25 µM
[5]; Prostate panel, total inhibition of net cell growth
  mean graph midpoint value (MG_MID) of log10 TGI: −4.15
Renal cancer cell lines; Homo sapiens, Renal panel, 50% net cell death, read-out: mean graph midpoint value (MG_MID) of Log10 LC50 (converted)
  CC50: 95.5 µM
Renal cancer cell lines; Homo sapiens, Renal panel, read-out: mean graph midpoint value (MG_MID) of Log10 GI50 (converted)
  GI50: 3.89 µM
Renal cancer cell lines; Homo sapiens, eight renal cancer cell lines, exposure at least 48 h, read-out: GI50, range over the panel
  GI50: 1.41 to 8.95 µM
Renal cancer cell lines; Renal panel, total inhibition of net cell growth
  mean graph midpoint value (MG_MID) of log10 TGI: −4.38
K562 (Leukemia) cells
  cells in G2/M phase: 16%
